Patent publication US8673974B2, “Substituted amino bisphenyl pentanoic acid derivatives as NEP inhibitors” (Novartis AG, priority 2010, dated 2014)

Target: T1, recombinant human neutral endopeptidase (NEP, EC 3.4.24.11) (Homo sapiens, UniProt P08473)
T1 construct: made in house; host or cells: insect cells
Experiment: in vitro inhibition of recombinant human neutral endopeptidase (fluorescence lifetime assay)
Type: biochemical
Conditions: recombinant human NEP 7 pM, 1 hour pre-incubation, substrate Cys(PT14)-Arg-Arg-Leu-Trp-OH 0.7 μM, read after 1 hour at room temperature, pH 7.4
Excerpt: The activity of a compound according to the present invention can be assessed by the following in vitro & in vivo methods and/or by the following in vitro & in vivo methods well-described in the art. See A fluorescence lifetime-based assay for protease inhibitor profiling on human kallikrein 7 Doering K, Meder G, Hinnenberger M, Woelcke J, Mayr L M, Hassiepen U Biomol Screen.
In particular, the in vitro inhibition of recombinant human neutral endopeptidase (NEP, EC 3.4.24.11) can be determined as follows: […]

T1 sequence (P08473 whole entry): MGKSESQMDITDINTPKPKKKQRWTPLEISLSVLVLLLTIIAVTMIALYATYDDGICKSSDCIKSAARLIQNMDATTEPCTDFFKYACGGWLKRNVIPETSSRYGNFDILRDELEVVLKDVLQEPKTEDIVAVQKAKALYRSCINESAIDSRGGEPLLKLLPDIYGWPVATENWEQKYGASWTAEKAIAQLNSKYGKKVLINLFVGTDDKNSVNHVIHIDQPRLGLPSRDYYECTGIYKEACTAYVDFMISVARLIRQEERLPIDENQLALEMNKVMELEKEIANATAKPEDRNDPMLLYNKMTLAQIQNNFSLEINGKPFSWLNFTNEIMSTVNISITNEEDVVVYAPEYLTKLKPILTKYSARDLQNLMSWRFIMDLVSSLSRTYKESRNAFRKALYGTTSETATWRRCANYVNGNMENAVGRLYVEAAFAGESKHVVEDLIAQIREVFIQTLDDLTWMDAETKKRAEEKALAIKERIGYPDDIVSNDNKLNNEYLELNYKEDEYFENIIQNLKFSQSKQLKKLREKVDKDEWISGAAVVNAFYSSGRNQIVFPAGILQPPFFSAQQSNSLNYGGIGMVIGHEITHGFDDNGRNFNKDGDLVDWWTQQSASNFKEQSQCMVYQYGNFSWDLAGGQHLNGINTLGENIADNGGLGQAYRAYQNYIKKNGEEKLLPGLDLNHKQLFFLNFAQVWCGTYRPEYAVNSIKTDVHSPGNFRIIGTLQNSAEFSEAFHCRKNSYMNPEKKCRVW

IC50: 3 nM
Structure (SMILES): COc1ccccc1-c1ccc(C[C@H](CC(C)C(=O)O)NC(=O)CCC(=O)O)cc1 (stereo partly drawn) [Example 6, (S)-4-(3-Carboxy-propionylamino)-5-(2′-methoxy-biphenyl-4-yl)-2-methyl-pentanoic acid]
